Columns and labels:
293T cells [1] = test: Cell survival rate determination (CCK-8); type: cell-based; settings: for Cell survival rate (%): LNP formulation containing 1.5 μg Fluc-mRNA, 24 hours, CCK-8, absorbance at 450 nm; for cell survival rate lower than that of YK-101: cell survival rate of YK-101 minus that of named substance; for cell survival rate lower than that of YK-107: cell survival rate of YK-107 minus that of named substance; for cell survival rate lower than that of YK-108: cell survival rate of YK-108 minus that of named substance
In short: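 293T cells were seeded overnight at 10,000 cells/well in 96-well plates, then exposed for 24 h to LNP containing 1.5 μg Fluc-mRNA (cationic:neutral:structural:polymer-conjugated lipid, 49:10:39.5:1.5 molar) or to Lipofectamine 3000. Viability was read by CCK-8, 1 h incubation, absorbance 450 nm.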

293T cells [2] = test: Fluorescent detection of Fluc-mRNA (cell transfection efficiency of LNP formulations); type: cell-based; settings: for Relative light unit (RLU): LNP formulation containing 0.3 μg Fluc-mRNA, 96-well plate, 24 hours; for Multiples (YK-101): RLU of YK-101 / RLU of named substance; for Multiples (YK-107): RLU of YK-107 / RLU of named substance; for Multiples (YK-108): RLU of YK-108 / RLU of named substance; for fluorescence absorption value, times that of HHMA: RLU of named substance / RLU of HHMA; for fluorescence absorption value, times that of Lipofectamine 3000: RLU of named substance / RLU of Lipofectamine 3000; for Ratio relative to SM-102: RLU of named substance / RLU of SM-102; for Fluc-mRNA expression signal intensity, times that of compound 21: RLU of named substance / RLU of compound 21; for fluorescence absorption value, times that of compound 23: RLU of named substance / RLU of compound 23; for difference from SM-102 in Fluc-mRNA fluorescence (GraphPad Prism analysis): statistical comparison with SM-102
In short: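 293T cells seeded at 10,000 per well, cultured overnight, then given LNP carrying 0.3 μg Fluc-mRNA (cationic:neutral:structured:PEG-lipid 49:10:39.5:1.5 molar). Incubated 24 h. Luciferase signal read with kit reagent on an IVIS imaging system.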

[3] = Determination of particle size and polydispersity index (PDI) of lipid nanoparticles by dynamic light scattering; type: physicochemical; settings: LNP formulation of named cationic lipid/DSPC/cholesterol/DMG-PEG2000 49:10:39.5:1.5; for Particle size (nm): 90° scattering angle, 25° C
Method: The cationic lipids listed in Table 1 were dissolved in ethanol with DSPC (AVT (Shanghai) Pharmaceutical Technology Co., Ltd.), cholesterol (AVT (Shanghai) Pharmaceutical Technology Co., Ltd.) and DMG-PEG2000 according to a molar ratio of 49:10:39.5:1.5, respectively, to prepare lipid solution in ethanol. The lipid solution in ethanol was quickly added to citrate buffer (pH=4 to 5) by ethanol injection method, and vortexed for 30 s for later use. eGFP-mRNA (from Shanghai Biohub International Trade Co., Ltd) or Fluc-mRNA (from Shanghai Biohub International Trade Co., Ltd) was diluted in citrate buffer (pH=4 to 5) to give an aqueous mRNA solution. A certain volume of liposome solution and mRNA aqueous solution were used to prepare liposomes at a weight ratio of total lipids to mRNA of 15:1. The mixtures were sonicated at 25° C. for 15 min (with an ultrasonic frequency of 40 kHz and an ultrasonic power of 800 W). The resulting liposomes were diluted to 10 times volume with PBS, and then ultrafiltered with a 300 KDa ultrafiltration tube to remove ethanol. Then the volume was fixed to a certain volume with PBS to give an LNP formulation encapsulating eGFP-mRNA or Fluc-mRNA using cationic lipid/DSPC/cholesterol/DMG-PEG2000 (49:10:39.5:1.5 in molar percentage).
The particle size and polydispersity index (PDI) were determined by dynamic light scattering using Malvern laser particle size analyzer.
10 μL of the liposome solution was weighed, diluted to 1 mL with RNase-free deionized water, and added to the sample pool. Each sample was measured in triplicate. The measurement conditions were: 90° scattering angle, and 25° C.

SMILES	Cell survival rate (%) (293T cells [1])	cell survival rate lower than that of YK-101 (293T cells [1]) [%]	cell survival rate lower than that of YK-107 (293T cells [1]) [%]	cell survival rate lower than that of YK-108 (293T cells [1]) [%]	cell transfection efficiency, times that of YK-121 (293T cells [2]) [times]	Relative light unit (RLU) (293T cells [2])	Multiples (YK-101) (293T cells [2])	Multiples (YK-107) (293T cells [2])	Multiples (YK-108) (293T cells [2])	fluorescence absorption value, times that of HHMA (293T cells [2]) [times]	fluorescence absorption value, times that of Lipofectamine 3000 (293T cells [2]) [times]	Ratio relative to SM-102 (293T cells [2])	Fluc-mRNA expression signal intensity, times that of compound 21 (293T cells [2]) [times]	fluorescence absorption value, times that of compound 23 (293T cells [2]) [times]	difference from SM-102 in Fluc-mRNA fluorescence (GraphPad Prism analysis) (293T cells [2])	PDI(%) [3] [%]	Particle size (nm) [3] [nm]	cell transfection activity, times that of YK-109 (293T cells [2]) [times]
CCCCCCCCCCOC(=O)CCCN(CCCCCC(=O)OCC(CCCCCCCC)CCCCCCCC)CCOCCOCCO [YK-122, 2-octyldecyl 6-(4-(decyloxy)-4-oxobutyl)(2-(2-(2-hydroxyethoxy)ethoxy-ethyl)amino)hexanoate]	79.15	10.97	11.30	10.71	3.3	1418705	14.33	15.76	17.38	0.69	1.32	0.92	1.02	1.10	no significant difference	7.7	205	–
CCCCCCCCCCOC(=O)CCCN(CCCCCC(=O)OCCC(CCCCCC)CCCCCC)CCOCCOCCO [YK-121, 3-hexylnonyl 6-(4-(decyloxy)-4-oxobutyl)(2-(2-(2-hydroxyethoxy)ethoxy-ethyl)amino)hexanoate]	73.11	17.01	17.34	16.75	–	427603	–	52.29	–	0.21	0.40	0.28	0.31	0.33	significant difference	25.1	192	–
CCCCCCCCCCOC(=O)CCCCCN(CCO)CCCCCC(=O)OCCC(CCCCCC)CCCCCC [YK-103, 3-hexylnonyl-6-((6-(decyloxy)-6-oxohexyl)(2-hydroxyethyl)amino)hexanoate]	45.25	44.87	45.20	44.61	–	2312883	8.79	9.67	10.66	–	–	1.51	–	–	no significant difference	21.5	179	3.2
CCCCCCCCCCOC(=O)CCCN(CCCCCC(=O)OCC(CCCCCCCC)CCCCCCCC)CCOCCO [YK-124, 2-octyldecyl 6-(4-(decyloxy)-4-oxobutyl)(2-(2-hydroxyethoxy-ethyl)amino)hexanoate]	77.56	12.56	12.89	12.30	–	81596	–	–	–	0.04	0.08	0.05	0.06	0.06	significant difference	14.7	216	–
CCCCCCCCCCOC(=O)CCCN(CCO)CCCCCCOC(=O)CC(CCCCCC)CCCCCC [YK-105]	78.58	11.54	11.87	11.28	–	1593805	12.76	14.03	15.47	–	–	1.04	–	–	no significant difference	18.6	109	–
CCCCCCCCCCOC(=O)CCCN(CCCCCC(=O)OCCC(CCCCCC)CCCCCC)CCOC(=O)CCCN(C)C [YK-125]	35.39	54.73	55.06	54.47	–	169824	–	131.67	–	0.08	0.16	0.11	0.12	0.13	significant difference	26.4	220	–
CCCCCCCCCCOC(=O)CCCN(CCCCCC(=O)OCCC(CCCCCC)CCCCCC)C[C@@H](O)CO [YK-115]	59.07	31.05	31.38	30.79	–	1427501	14.25	15.66	17.28	0.70	1.33	0.93	1.03	1.11	–	21.8	167	–

Source: patent US20260008746A1, “CATIONIC LIPID COMPOUND WITH HIGH EFFICIENCY, LOW TOXICITY AND STABLE EXPRESSION, AND COMPOSITION COMPRISNG SAME” (HANGZHOU TIANLONG PHARMACEUTICAL CO., LTD, priority 2023, published 2026)
